# Reference: ChEMBL document CHEMBL1201862, “PubChem BioAssay data set” (2004)
#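 Protocol summary: plate cells (96-well), add compound at 5 concentrations, incubate 48 h, interpolate endpoints linearly. GI50 marks 50% less growth.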 Calls of active or inactive are those of the source. Rule as the data show it: active = GI50 up to about 1.1 µM and inactive = higher.
# Tests used:
# Experiment in all cases: DTP human tumour cell line panel, 48 h
# U-251 = system: U-251
# SK-OV-3 = system: SK-OV-3
# HOP-62 = system: HOP-62
# A498 = system: A498
# HT-29 = system: HT-29
# HCT-116 = system: HCT-116
# SF-539 = system: SF-539
# NCI-H522 = system: NCI-H522
# SW-620 = system: SW-620
# A549 = system: A549
# LOX IMVI = system: LOX IMVI
# SF-295 = system: SF-295
# SF-268 = system: SF-268
# NCI-H226 = system: NCI-H226
# M19-MEL = system: M19-MEL
# SNB-19 = system: SNB-19
# SNB-75 = system: SNB-75
# SR = system: SR
# EKVX = system: EKVX
# UACC-257 = system: UACC-257
# DMS-273 = system: DMS-273
# NCI-H23 = system: NCI-H23
# SNB-78 = system: SNB-78
# CCRF-CEM = system: CCRF-CEM
# ACHN = system: ACHN
# KM12 = system: KM12
# NCI-H460 = system: NCI-H460
# COLO 205 = system: COLO 205
# K562 = system: K562
# TK-10 = system: TK-10
# HL-60 = system: HL-60
# IGROV-1 = system: IGROV-1
# SK-MEL-2 = system: SK-MEL-2
# OVCAR-4 = system: OVCAR-4
# HCC 2998 = system: HCC 2998
# DLD-1 = system: DLD-1
# OVCAR-8 = system: OVCAR-8
# XF498 = system: XF498
# HOP-92 = system: HOP-92
# OVCAR-3 = system: OVCAR-3
# Malme-3M = system: Malme-3M
# KM-20L2 = system: KM-20L2
# UACC-62 = system: UACC-62
# LXFL 529 = system: LXFL 529
# SK-MEL-28 = system: SK-MEL-28
# MOLT-4 = system: MOLT-4
# SK-MEL-5 = system: SK-MEL-5
# SN12C = system: SN12C
# M14 = system: M14
# HCT-15 = system: HCT-15
# RXF 393 = system: RXF 393
# OVCAR-5 = system: OVCAR-5
# UO-31 = system: UO-31
# RPMI-8226 = system: RPMI-8226
# 786-0 = system: 786-0
# DMS-114 = system: DMS-114
smiles,measurement,setting,value
Nc1nc(SCCC/C=C/B(O)O)nc2c1ncn2C1OC(CO)C(O)C1O (centres undefined),GI50,U-251,> 243 µM (inactive)
same,GI50,SK-OV-3,> 243 µM (inactive)
same,GI50,HOP-62,> 243 µM (inactive)
same,GI50,A498,> 243 µM (inactive)
same,GI50,HT-29,> 243 µM (inactive)
same,GI50,HCT-116,> 243 µM (inactive)
same,GI50,SF-539,> 243 µM (inactive)
same,GI50,NCI-H522,> 243 µM (inactive)
same,GI50,SW-620,> 243 µM (inactive)
same,GI50,A549,> 243 µM (inactive)
same,GI50,LOX IMVI,> 243 µM (inactive)
same,GI50,SF-295,> 243 µM (inactive)
same,GI50,SF-268,> 243 µM (inactive)
same,GI50,NCI-H226,> 243 µM (inactive)
same,GI50,M19-MEL,> 243 µM (inactive)
same,GI50,SNB-19,> 243 µM (inactive)
same,GI50,SNB-75,> 243 µM (inactive)
same,GI50,SR,> 243 µM (inactive)
same,GI50,EKVX,> 243 µM (inactive)
same,GI50,UACC-257,> 243 µM (inactive)
same,GI50,DMS-273,> 243 µM (inactive)
same,GI50,NCI-H23,> 243 µM (inactive)
same,GI50,SNB-78,> 243 µM (inactive)
same,GI50,CCRF-CEM,> 243 µM (inactive)
same,GI50,ACHN,> 243 µM (inactive)
same,GI50,KM12,> 243 µM (inactive)
same,GI50,NCI-H460,> 243 µM (inactive)
same,GI50,COLO 205,> 243 µM (inactive)
same,GI50,K562,> 243 µM (inactive)
same,GI50,TK-10,> 243 µM (inactive)
same,GI50,HL-60,> 243 µM (inactive)
same,GI50,IGROV-1,> 243 µM (inactive)
same,GI50,SK-MEL-2,> 243 µM (inactive)
same,GI50,OVCAR-4,> 243 µM (inactive)
same,GI50,HCC 2998,> 243 µM (inactive)
same,GI50,DLD-1,> 243 µM (inactive)
same,GI50,OVCAR-8,> 243 µM (inactive)
same,GI50,XF498,> 243 µM (inactive)
same,GI50,HOP-92,> 243 µM (inactive)
same,GI50,OVCAR-3,> 243 µM (inactive)
same,GI50,Malme-3M,> 243 µM (inactive)
same,GI50,KM-20L2,> 243 µM (inactive)
same,GI50,UACC-62,> 243 µM (inactive)
same,GI50,LXFL 529,> 243 µM (inactive)
same,GI50,SK-MEL-28,> 243 µM (inactive)
same,GI50,MOLT-4,> 243 µM (inactive)
same,GI50,SK-MEL-5,> 243 µM (inactive)
same,GI50,SN12C,> 243 µM (inactive)
same,GI50,M14,> 243 µM (inactive)
same,GI50,HCT-15,> 243 µM
same,GI50,RXF 393,> 243 µM (inactive)
same,GI50,OVCAR-5,> 243 µM (inactive)
COc1ccc([N+]2=NC(c3ccc([N+](=O)[O-])cc3)=NN(c3ccccc3)C2)cc1,GI50,U-251,37.3 µM (inactive)
same,GI50,HOP-62,> 100 µM (inactive)
same,GI50,A498,41.6 µM (inactive)
same,GI50,UO-31,26.9 µM (inactive)
same,GI50,HT-29,34 µM (inactive)
same,GI50,HCT-116,46 µM (inactive)
same,GI50,NCI-H522,2.69 µM (inactive)
same,GI50,SW-620,68.4 µM (inactive)
same,GI50,A549,71 µM (inactive)
same,GI50,LOX IMVI,30.1 µM (inactive)
same,GI50,SF-295,> 10 µM (inactive)
same,GI50,SF-268,97.7 µM (inactive)
same,GI50,NCI-H226,52.4 µM (inactive)
same,GI50,SNB-19,71.9 µM (inactive)
same,GI50,SR,32.9 µM (inactive)
same,GI50,EKVX,44.4 µM (inactive)
same,GI50,UACC-257,30.1 µM (inactive)
same,GI50,DMS-273,> 10 µM (inactive)
same,GI50,NCI-H23,55.8 µM (inactive)
same,GI50,SNB-78,> 100 µM (inactive)
same,GI50,CCRF-CEM,24.9 µM (inactive)
same,GI50,ACHN,42.5 µM (inactive)
same,GI50,NCI-H460,25.9 µM (inactive)
same,GI50,COLO 205,68.2 µM (inactive)
same,GI50,K562,21 µM (inactive)
same,GI50,TK-10,> 100 µM (inactive)
same,GI50,HL-60,18.6 µM (inactive)
same,GI50,IGROV-1,39 µM (inactive)
same,GI50,RPMI-8226,24.7 µM (inactive)
same,GI50,OVCAR-4,22.6 µM (inactive)
same,GI50,HCC 2998,> 100 µM (inactive)
same,GI50,DLD-1,26.5 µM (inactive)
same,GI50,OVCAR-8,> 10 µM (inactive)
same,GI50,XF498,55.6 µM (inactive)
same,GI50,OVCAR-3,42.5 µM (inactive)
same,GI50,Malme-3M,> 100 µM (inactive)
same,GI50,KM-20L2,49.4 µM (inactive)
same,GI50,LXFL 529,27.1 µM (inactive)
same,GI50,SK-MEL-28,70.8 µM (inactive)
same,GI50,786-0,> 100 µM (inactive)
same,GI50,MOLT-4,21.6 µM (inactive)
same,GI50,SK-MEL-5,21 µM (inactive)
same,GI50,DMS-114,40.1 µM (inactive)
same,GI50,SN12C,> 100 µM (inactive)
same,GI50,HCT-15,24.8 µM
same,GI50,RXF 393,> 100 µM (inactive)
same,GI50,OVCAR-5,> 100 µM (inactive)
